Reference: article PMC3522424 (Vaccine, 2012)

System: PBMCs from HIV-infected HLA-A2-positive subjects
Test: IFNγ ELISpot with PBMCs from HIV-infected HLA-A2 subjects
Conditions: for % donors responding positively in ELISpots: Providence and Mali donors together; for IFNγ ELISpot response, donor H_0912: HLA-A A0201; for IFNγ ELISpot response, donor H_0865: HLA-A A02011; for IFNγ ELISpot response, donor 0015404: A02, A0285, A0286; for IFNγ ELISpot response, donor 0015299 / IFNγ ELISpot response, donor 0018349: A0208; for IFNγ ELISpot response, donor 0015269: A0209, A0231
[1] = cohort #1 Providence, positive donors / 16 donors
[2] = cohort #1 Providence, peptide 10 μg/ml, overnight 37°C
[3] = cohort #3 Bamako, Mali, positive donors / 8 donors
[4] = cohort #3 Bamako, Mali, peptide 10 μg/ml, overnight 37°C

Question: DIQKLVGKL [Peptide 1010] was tested. Which “IFNγ ELISpot response, stated in words” value (PBMCs from HIV-1-infected HLA-A2 subjects, Providence and/or Bamako as stated) did it give?
Answer: elicited IFNγ ELISpot responses

Question: And the “% donors responding positively in ELISpots” value (peptide 10 μg/ml)?
Answer: 6.3%

Question: And the “Total responses per epitope” value [1]?
Answer: 1/16

Question: And the “IFNγ ELISpot response, donor H_0912” value [2]?
Answer: - (ELISpot responses that fall below this cutoff point are indicated with a dash mark)

Question: And the “IFNγ ELISpot response, donor H_0836” value (cohort #1 Providence, HLA-A A02011, A2901, peptide 10 μg/ml, overnight 37°C)?
Answer: 64 spots per 10^6 PBMCs

Question: What about the “IFNγ ELISpot response, donor H_0865” value [2] of the same sequence?
Answer: - (ELISpot responses that fall below this cutoff point are indicated with a dash mark)

Question: With PLQLPPLERL [Peptide 2004] as the sequence, how does the “% donors responding positively in ELISpots” value (peptide 10 μg/ml) read?
Answer: 50.0%

Question: What about the “Total responses per epitope” value [3] of the same sequence?
Answer: 4/8

Question: And the “IFNγ ELISpot response, donor 0015404” value [4]?
Answer: 59 spots per 10^6 PBMCs

Question: And the “IFNγ ELISpot response, donor 0015299” value [4]?
Answer: 36 spots per 10^6 PBMCs

Question: What about the “IFNγ ELISpot response, donor 0018349” value [4] of the same sequence?
Answer: 37 spots per 10^6 PBMCs

Question: And the “IFNγ ELISpot response, donor 0015269” value [4]?
Answer: - (ELISpot responses that fall below this cutoff point are indicated with a dash mark)

Question: Which results are given for ILKEPVHGVY [Peptide 1249]?
Answer: Subjects with a positive response (cohort #2 Providence, eight subjects): 37.5%; Total responses per epitope (cohort #2 Providence, positive donors / 8 donors): 3/8; IFNγ ELISpot response, donor 0517001 (cohort #2 Providence, A2, A3, B44, Cw05, Cw07, peptide 10 μg/ml, overnight 37°C): 117 spots per 10^6 PBMCs; IFNγ ELISpot response, donor 0902991 (cohort #2 Providence, A2, A30, B39, peptide 10 μg/ml, overnight 37°C): 2380 spots per 10^6 PBMCs

Question: What does the source list for SAEPVPLQL [Peptide 2003]?
Answer: % donors responding positively in ELISpots (peptide 10 μg/ml): 50.0%; Total responses per epitope [3]: 4/8; IFNγ ELISpot response, donor 0015404 [4]: 50 spots per 10^6 PBMCs; IFNγ ELISpot response, donor 0015299 [4]: 25 spots per 10^6 PBMCs; IFNγ ELISpot response, donor 0018349 [4]: 25 spots per 10^6 PBMCs; IFNγ ELISpot response, donor 0015269 [4]: - (ELISpot responses that fall below this cutoff point are indicated with a dash mark)

Question: What does the source list for RTLNAWVKV [Peptide 3003]?
Answer: % donors responding positively in ELISpots (peptide 10 μg/ml): 25.0%; Total responses per epitope [3]: 2/8; IFNγ ELISpot response, donor 0015404 [4]: 43 spots per 10^6 PBMCs; IFNγ ELISpot response, donor 0015299 [4]: - (ELISpot responses that fall below this cutoff point are indicated with a dash mark); IFNγ ELISpot response, donor 0018349 [4]: - (ELISpot responses that fall below this cutoff point are indicated with a dash mark); IFNγ ELISpot response, donor 0015269 [4]: - (ELISpot responses that fall below this cutoff point are indicated with a dash mark)

Question: GIKPVVSTQL [Peptide 1001] was tested. Which “% donors responding positively in ELISpots” value (peptide 10 μg/ml) did it give?
Answer: 20.8%

Question: And the “Total responses per epitope” value [1]?
Answer: 2/16

Question: And the “IFNγ ELISpot response, donor H_0912” value [2]?
Answer: 903 spots per 10^6 PBMCs

Question: What about the “IFNγ ELISpot response, donor H_0854” value (cohort #1 Providence, HLA-A A02011, A3401, peptide 10 μg/ml, overnight 37°C) of the same sequence?
Answer: 75 spots per 10^6 PBMCs

Question: And the “IFNγ ELISpot response, donor H_0865” value [2]?
Answer: - (ELISpot responses that fall below this cutoff point are indicated with a dash mark)

Question: And the “Total responses per epitope” value [3]?
Answer: 3/8

Question: And the “IFNγ ELISpot response, donor 0015404” value [4]?
Answer: 111 spots per 10^6 PBMCs

Question: And the “IFNγ ELISpot response, donor 0015299” value [4]?
Answer: 53 spots per 10^6 PBMCs

Question: What about the “IFNγ ELISpot response, donor 0018349” value [4] of the same sequence?
Answer: 37 spots per 10^6 PBMCs

Question: What about the “IFNγ ELISpot response, donor 0015269” value [4] of the same sequence?
Answer: - (ELISpot responses that fall below this cutoff point are indicated with a dash mark)

Question: RLEPWKHPG [Peptide 1017] was tested. Which “% donors responding positively in ELISpots” value (peptide 10 μg/ml) did it give?
Answer: 6.3%

Question: What about the “Total responses per epitope” value [1] of the same sequence?
Answer: 1/16

Question: What about the “IFNγ ELISpot response, donor H_0912” value [2] of the same sequence?
Answer: 29 spots per 10^6 PBMCs

Question: What about the “IFNγ ELISpot response, donor H_0865” value [2] of the same sequence?
Answer: - (ELISpot responses that fall below this cutoff point are indicated with a dash mark)

Question: With WLWYIKIFI [Peptide 3002] as the sequence, how does the “% donors responding positively in ELISpots” value (peptide 10 μg/ml) read?
Answer: 12.5%

Question: And the “Total responses per epitope” value [3]?
Answer: 1/8

Question: And the “IFNγ ELISpot response, donor 0015404” value [4]?
Answer: 63 spots per 10^6 PBMCs

Question: What about the “IFNγ ELISpot response, donor 0015299” value [4] of the same sequence?
Answer: - (ELISpot responses that fall below this cutoff point are indicated with a dash mark)

Question: What about the “IFNγ ELISpot response, donor 0018349” value [4] of the same sequence?
Answer: - (ELISpot responses that fall below this cutoff point are indicated with a dash mark)

Question: What about the “IFNγ ELISpot response, donor 0015269” value [4] of the same sequence?
Answer: - (ELISpot responses that fall below this cutoff point are indicated with a dash mark)
